The text below walks through data of patent publication US20220133894A1, “BISPHOSPHONATE-LINKED COMPOUNDS” (OREGON HEALTH & SCIENCE UNIVERSITY, priority 2019, published 2022).

Molecules are shown by their SMILES.

Experiment [1] concerns RAW 267.4 cells. Nature of the experiment: Osteo Assay pit formation, osteoclast-mediated bone degradation. It is filed as cell-based, mouse.
Experiment [2] relates to prostate specific antigen (PSA). Description: PSA expression by qRT/PCR in LNCaP cells. The class given is cell-based, human. Conditions: LNCaP cells in androgen depleted media. How it is done: (§1) Cells were cultured in media depleted of androgen and after a washout of 72 hrs were treated with the synthetic androgen R1881, KBU2046, enzalutamide and/or vehicle (control), and resultant effects upon induction of the androgen-responsive gene, prostate specific antigen (PSA) were measured (FIG. 3A).
(§2) LNCaP or VCaP cells cultured in hormone free media were treated with R1881 (R), KBU2046 (46) and/or enzalutamide (E). (FIGS. 3A and 3B) Effects on AR-responsive gene expression. PSA expression was measured by qRT/PCR, normalized to GAPDH and expressed as a percent of control cells (N=3 replicates); * denotes P<0.05 for groups separated by bar. (FIGS. 3C and 3D) Effects on cell growth. Three day growth assays were performed. Data are the number of viable cells, expressed as % of control (N=3 replicates); * P<0.05 compared to control. (E) Effects on AR activation. Western blots of nuclear (N) and cytoplasmic (C) preparations of cell extracts were probed for AR, laminin 1 or α-tubulin. (FIGS. 3F and 3G) Effects on tumor outgrowth after androgen deprivation therapy. LNCaP/AR-luc cells were implanted subcutaneously (N=6 mice/cohort) or orthotopic (N=15 mice/cohort were implanted; N=5 yielded tumors) into castrate mice, treatment with KBU2046 began as noted, and weekly IVIS imaging performed. Data are tumor size, expressed as luminescence intensity. All data are expressed as mean±SEM.
(§3) RNA was isolated and qRT/PCR performed as previously described by us (Ding et al., J Biomol Tech 18, 321-330 (2007)). Resultant data were analyzed using the 2^−ΔΔt method (Livak et al., Methods 25, 402-408 (2001)), normalized to GAPDH, for the following primer/probe sets (ABI) PSA (Hs02576345_m1) and GAPDH (Hs99999905_m1). Assays were performed in triplicate, and were repeated.

For experiment [3] the test system is unchanged. Description: PSA expression by qRT/PCR in VCaP cells. It is filed as cell-based, human. The note with it: VCaP cells in androgen depleted media. How it is done: as §1, §2, §3
Experiment [4] relates to RAW 267.4 cells. Description: Osteoclast morphology and maturation (actin/DAPI immunofluorescence, TRAP staining). Conditions: Raf1-specific inhibitors; TRAP staining, multinucleated cells, resorptive cavity formation. It is filed as cell-based, mouse. An excerpt: Treatment of RAW 267.4 cells with KBU2046 induces several structural and functional changes. It reduces RANKL-mediated formation of multinucleated cells, and those that do form have lower numbers of nuclei (see 40× panels, FIG. 4B). The characteristic prominent actin ring (white arrow) surrounding the resorptive cavity (yellow arrow) is readily apparent in control cells treated with RANKL ligand, but is lacking in KBU2046-treated cells (100×, panels). Consistent with it inhibiting maturation of RAW 267.4 cells, TRAP staining is decreased in KBU2046-treated cells (FIG. 4C).
FIG. 4 represents the KBU2046 inhibition of osteoclast function. FIG. 4A compares effects on Raf1 activation. RAW 267.4 cells were treated with RANKL for 4 days, treated with 10 μM KBU2046 for the indicated time periods, and Western blot for the denoted proteins performed. (B) Effects on cell morphology. RAW 267.4 cells were treated with RANKL and with KBU2046 for 4 days, or not, and denoted, and stained for actin (green) and DAPI (blue); white arrow denotes an actin ring, yellow arrow a resorptive cavity. Representative immunofluorescent images are depicted. (C) Tartrate resistant acid phosphatase (TRAP) expression. Cells were treated as in B, stained for TRAP (denoted by presence of red), and representative images from light microscopy depicted. (D) Bone degradation. RAW 267.4 cells were plated onto Osteo Assay plates, treated with RANKL for 6 days and with KBU2046 (or vehicle for controls) as indicated and bone surface area quantified. Data are the mean±SEM (N=3 replicates) of bone surface area, expressed as the percentage of control cells; * denotes P<0.05 compared to control.
Raw 264.7 cells were grown in differentiation medium (described below), with or without KBU2046, for 4 days on a Chamber Slide (Nunc Lab-Tek). Chambers were washed once with PBS, followed by 10-minute fixation in cold 10% neutral-buffered formalin (VWR) and a post-fixation wash with PBS. […] The cells were then incubated for 2 hours at 4° C. in Dylight Phallodin (Cell Signaling technology, #12935) antibody diluted 1:40 in 1×PBS with 1% BSA and 0.3% Triton X-100. Subsequently, the slide was washed once with PBS, a coverslip mounted with ProLong Gold Antifade Reagent with DAPI (Cell Signaling Technology, #8961), and imaged on a Confocal Microscope (Nikon/Yokogawa Spinning Disc).

A further experiment relates to PC3-luc cells. Nature of the experiment: PCa intracardiac injection model, bone destruction by CT and survival. It is filed as in vivo, mice.
Setting [5] is: experimental compounds with RANKL, day 6, FIGS. 6A-6L.
[6] abbreviates: Raf1-specific inhibitors, Supplementary Fig. S5.

On to `O=C(CCOCCNC(=O)COc1ccc2c(c1)OCC(c1ccc(F)cc1)C2=O)NCC(O)C[n+]1ccn(CC(O)(P(=O)(O)O)P(=O)(O)O)c1` (centres unmarked) [Compound G, 3-(3-(3-(2-(2-((3-(4-fluorophenyl)-4-oxochroman-7-yl)oxy)acetamido)ethoxy)propanamido)-2-hydroxypropyl)-1-(2-hydroxy-2,2-diphosphonoethyl)-1H-imidazol-3-ium], for which the osteoclast-mediated bone degradation result in the experiment on RAW 267.4 cells [1] (setting [5]) was “inhibiting”.
Still for that read-out and setting: with `O=C(CCOCCOCCNC(=O)COc1ccc2c(c1)OCC(c1ccc(F)cc1)C2=O)NCCCC(O)(P(=O)(O)O)P(=O)(O)O` (centres unmarked) [Compound E (n=2), (1-((3-(4-fluorophenyl)-4-oxochroman-7-yl)oxy)-17-hydroxy-2,12-dioxo-6,9-dioxa-3,13-diazaheptadecane-17,17-diyl)bis(phosphonic acid)] the entry was “inhibiting”.
Take `C[C@]1(O)CC[C@H]2[C@@H]3CCC4=CC(=O)CCC4=C3C=C[C@@]21C` [Compound R1881]: the PSA expression entry in experiment [2] and in experiment [3] was “significantly increased” throughout.
Consider `O=C(CCOCCOCCOCCOCCNC(=O)COc1ccc2c(c1)OCC(c1ccc(F)cc1)C2=O)NCC(O)C[n+]1ccn(CC(O)([PH](=O)O)P(=O)(O)O)c1` (centres unmarked) [Compound I, (2-(3-(1-((3-(4-fluorophenyl)-4-oxochroman-7-yl)oxy)-18-(I1-oxidaneyl)-2,15-dioxo-6,9,12-trioxa-3,16-diazanonadecan-19-yl)-1H-3I4-imidazol-1-yl)-1-hydroxyethane-1,1-diyl)bis(hydrogen phosphonate)], for which, in the experiment with RAW 267.4 cells [1] (setting [5]), the osteoclast-mediated bone degradation result was “inhibiting”.
On to `O=C1Nc2ccc(I)cc2/C1=C/c1cc(Br)c(O)c(Br)c1` [GW5074], for which, in the experiment with RAW 267.4 cells [4], the RANKL-induced osteoclast maturation result is reported as “inhibit”. The osteoclast-mediated bone degradation entry in the experiment on RAW 267.4 cells [1] (setting [6]) is “inhibit”.
Turning to `O=P(O)(O)C(O)(Cn1ccnc1)P(=O)(O)O` [ZA, zoledronic acid], the “improvement of femur bone density compared to control” value in the experiment on PC3-luc cells (oral 150 mg KBU2046/kg daily, intraperitoneal ZA 100 μg/kg weekly, CT) turned out to be 56±2.7%.
For `O=C(CCOCCOCCOCCCNC(=O)COc1ccc2c(c1)OCC(c1ccc(F)cc1)C2=O)NCCCC(O)(P(=O)(O)O)P(=O)(O)O` (centres unmarked) [Compound E (n=3), (1-((3-(4-fluorophenyl)-4-oxochroman-7-yl)oxy)-21-hydroxy-2,16-dioxo-7,10,13-trioxa-3,17-diazahenicosane-21,21-diyl)bis(phosphonic acid)], the osteoclast-mediated bone degradation result in the experiment with RAW 267.4 cells [1] (setting [5]) is listed as “inhibiting”.
For the compound `Cc1ccc(NC(=O)c2cccc(N(C)C)c2)cc1NC(=O)c1ccc(O)cc1` [ZM336372], the RANKL-induced osteoclast maturation entry in the experiment on RAW 267.4 cells [4] is “inhibit”. In addition, the osteoclast-mediated bone degradation result in the experiment with RAW 267.4 cells [1] (setting [6]) is “inhibit”.
On to `Cc1ccc(C(=O)Nc2cccc(C(F)(F)F)c2)cc1Nc1nc(-c2cccnc2)nc2c1cnn2C` [NVP-BHG712], for which the RANKL-induced osteoclast maturation result in the experiment with RAW 267.4 cells [4] is recorded as “inhibit”. Further, the osteoclast-mediated bone degradation result in the experiment on RAW 267.4 cells [1] (setting [6]) is given as “inhibit”.
Turning to `O=C(CCOCCOCCOCCNC(=O)COc1ccc2c(c1)OCC(c1ccc(F)cc1)C2=O)NCC(O)C[n+]1ccn(CC(O)([PH](=O)O)P(=O)(O)O)c1` (centres unmarked) [Compound H, (2-(3-(1-((3-(4-fluorophenyl)-4-oxochroman-7-yl)oxy)-15-(I1-oxidaneyl)-2,12-dioxo-6,9-dioxa-3,13-diazahexadecan-16-yl)-1H-3I4-imidazol-1-yl)-1-hydroxyethane-1,1-diyl)bis(hydrogen phosphonate)], in the experiment on RAW 267.4 cells [1] (setting [5]), the osteoclast-mediated bone degradation result was “inhibiting”.
Regarding `O=C(CCOCCNC(=O)COc1ccc2c(c1)OCC(c1ccc(F)cc1)C2=O)NCCCC(O)(P(=O)(O)O)P(=O)(O)O` (centres unmarked) [Compound E (n=1), (4-(3-(2-(2-((3-(4-fluorophenyl)-4-oxochroman-7-yl)oxy)acetamido)ethoxy)propanamido)-1-hydroxybutane-1,1-diyl)bis(phosphonic acid)], in the experiment with PC3-luc cells (10, 100 or 1000 ug/kg weekly intraperitoneal, from 1 week before IC injection), the survival entry was “prolongs”. For the same compound, the “bone destruction in the jaw” value with PC3-luc cells (10, 100 or 1000 μg/kg weekly intraperitoneal, from 1 week before IC injection, CT) is “inhibits”. Further, in the experiment on RAW 267.4 cells [1] (setting [5]), the osteoclast-mediated bone degradation result is listed as “inhibiting”.
